Assay results: patent US20230416275A1, “MODULATORS OF CYSTIC FIBROSIS TRANSMEMBRANE CONDUCTANCE REGULATOR” (VERTEX PHARMACEUTICALS INCORPORATED, priority 2020, published 2023)

Target: T1, F508del in NIH 3T3 cells (Homo sapiens, UniProt P13569, DEL508-508)
T1 construct: expressed in transfected cells
Assay: 3T3 assay: membrane potential optical assay for F508del correction
Assay type: cell-based, mouse
Conditions: for EC50: F508del NIH 3T3 cells, compound incubation 18-24 hours at 37° C., forskolin activation, read-out: 3T3 EC50; for Emax: NIH3T3, F508del NIH 3T3 cells, efficacy compared to lumacaftor in combination with acutely added 300 nM Ivacaftor, read-out: 3T3 Max Activity (%)
Excerpt: a. Membrane Potential Optical Methods for Assaying F508del Modulation Properties of Compounds
The assay utilizes fluorescent voltage sensing dyes to measure changes in membrane potential using a fluorescent plate reader (e.g., FLIPR III, Molecular Devices, Inc.) as a readout for increase in functional F508del in NIH 3T3 cells. The driving force for the response is the creation of a chloride ion gradient in conjunction with channel activation by a single liquid addition step after the cells have previously been treated with compounds and subsequently loaded with a voltage sensing dye.
b. Identification of Corrector Compounds
To identify correctors of F508del, a single-addition HTS assay format was developed. This HTS assay utilizes fluorescent voltage sensing dyes to measure changes in membrane potential on the FLIPR III as a measurement for increase in gating (conductance) of F508del in F508del NIH 3T3 cells. The F508del NIH 3T3 cell cultures were incubated with the corrector compounds at a range of concentrations for 18-24 hours at 37° C., and subsequently loaded with a redistribution dye. The driving force for the response is a Cl^− ion gradient in conjunction with channel activation with forskolin in a single liquid addition step using a fluorescent plate reader such as FLIPR III.
Bath Solution #1: (in mM) NaCl 160, KCl 4.5, CaCl2 2, MgCl2 1, HEPES 10, pH 7.4 with NaOH.
Chloride-free bath solution: Chloride salts in Bath Solution #1 (above) are substituted with gluconate salts.
NIH3T3 mouse fibroblasts stably expressing F508del are used for optical measurements of membrane potential. The cells are maintained at 37° C. in 5% CO2 and 90% humidity in Dulbecco's modified Eagle's medium supplemented with 2 mM glutamine, 10% fetal bovine serum, 1×NEAA, b-ME, 1× pen/strep, and 25 mM HEPES in 175 cm^2 culture flasks. For all optical assays, the cells were seeded at ˜20,000/well in 384-well Matrigel-coated plates. For the correction assays, the cells are cultured at 37° C. with and without compounds for 16-24 hours.

T1 sequence (P13569 with tags, fused parts or gaps DEL508-508): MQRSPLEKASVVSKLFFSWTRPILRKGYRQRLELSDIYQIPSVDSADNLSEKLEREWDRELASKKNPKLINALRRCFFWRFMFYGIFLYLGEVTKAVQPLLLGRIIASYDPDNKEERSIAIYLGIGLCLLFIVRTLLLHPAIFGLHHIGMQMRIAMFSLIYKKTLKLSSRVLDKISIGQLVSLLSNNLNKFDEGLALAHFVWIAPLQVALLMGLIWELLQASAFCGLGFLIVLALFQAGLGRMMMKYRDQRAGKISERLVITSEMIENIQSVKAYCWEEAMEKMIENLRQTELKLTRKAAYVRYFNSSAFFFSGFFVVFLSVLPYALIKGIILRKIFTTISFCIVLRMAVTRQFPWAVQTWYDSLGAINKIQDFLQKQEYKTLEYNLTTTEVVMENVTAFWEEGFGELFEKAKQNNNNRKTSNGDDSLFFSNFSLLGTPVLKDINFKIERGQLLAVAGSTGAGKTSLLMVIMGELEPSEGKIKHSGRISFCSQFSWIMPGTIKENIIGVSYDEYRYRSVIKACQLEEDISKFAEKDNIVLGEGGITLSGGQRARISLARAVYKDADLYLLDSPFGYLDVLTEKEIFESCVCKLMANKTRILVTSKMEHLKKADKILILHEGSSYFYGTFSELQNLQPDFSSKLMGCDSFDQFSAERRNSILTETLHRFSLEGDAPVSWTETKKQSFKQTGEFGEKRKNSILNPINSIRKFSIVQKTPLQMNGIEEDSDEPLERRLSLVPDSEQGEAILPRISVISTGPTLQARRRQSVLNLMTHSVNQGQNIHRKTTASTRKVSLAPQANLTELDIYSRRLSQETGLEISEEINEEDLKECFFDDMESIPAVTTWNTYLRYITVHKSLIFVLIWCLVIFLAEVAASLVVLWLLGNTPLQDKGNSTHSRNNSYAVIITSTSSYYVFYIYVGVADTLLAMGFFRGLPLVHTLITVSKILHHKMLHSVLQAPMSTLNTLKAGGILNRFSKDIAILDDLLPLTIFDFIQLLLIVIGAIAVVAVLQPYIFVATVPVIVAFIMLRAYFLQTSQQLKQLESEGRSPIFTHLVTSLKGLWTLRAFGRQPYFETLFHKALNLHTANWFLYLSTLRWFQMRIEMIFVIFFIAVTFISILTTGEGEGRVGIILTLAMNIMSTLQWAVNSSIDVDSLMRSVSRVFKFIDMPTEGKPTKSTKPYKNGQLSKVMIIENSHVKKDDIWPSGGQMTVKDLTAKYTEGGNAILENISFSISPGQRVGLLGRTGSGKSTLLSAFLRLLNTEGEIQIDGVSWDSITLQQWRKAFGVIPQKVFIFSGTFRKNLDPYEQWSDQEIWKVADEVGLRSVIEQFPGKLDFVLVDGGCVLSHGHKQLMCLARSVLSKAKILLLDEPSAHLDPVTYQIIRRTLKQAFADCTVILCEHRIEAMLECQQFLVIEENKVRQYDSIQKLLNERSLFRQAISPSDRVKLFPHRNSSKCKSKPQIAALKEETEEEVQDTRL

EC50 [µM]	Emax [%]	SMILES
< 1	> 60	Cc1cccc(C)c1-c1cc2nc(n1)NS(=O)(=O)c1cccc(c1)NC(=O)c1cccc(c1C)O2 (racemic) [Compound 59, 5-(2,6-Dimethylphenyl)-21-methyl-9,9-dioxo-2-oxa-9λ^6-thia-6,8,15,23-tetraazatetracyclo[15.3.1.13,7.110,14]tricosa-1(20),3,5,7(23),10(22),11,13,17(21),18-nonaen-16-one]
< 1	> 60	Cc1cccc(C)c1-c1cc2nc(n1)NS(=O)(=O)c1cccc(c1)NC(=O)[C@H]1C[C@@H](CN(C(=O)OC(C)(C)C)C1)O2 (single isomer, unassigned) [Compound 4]
< 1	> 60	Cc1cccc(C)c1-c1cc2nc(n1)NS(=O)(=O)c1cccc(c1)NC(=O)c1cccc(c1C)O2 (single isomer, unassigned) [Compound 60, (+)-5-(2,6-Dimethylphenyl)-21-methyl-9,9-dioxo-2-oxa-9λ^6-thia-6,8,15,23-tetraazatetracyclo[15.3.1.13,7.110,14]tricosa-1(20),3,5,7(23),10(22),11,13,17(21),18-nonaen-16-one]
< 1		Cc1cccc(C)c1-c1cc2nc(n1)NS(=O)(=O)c1cccc(c1)NC(=O)c1cccc(c1C)O2 (single isomer, unassigned) [Compound 61, (−)-5-(2,6-dimethylphenyl)-21-methyl-9,9-dioxo-2-oxa-9λ^6-thia-6,8,15,23-tetraazatetracyclo[15.3.1.13,7.110,14]tricosa-1(20),3,5,7(23),10(22),11,13,17(21),18-nonaen-16-one]
< 1	> 60	Cc1cccc(C)c1-c1cc2nc(n1)NS(=O)(=O)c1cccc(c1)NC(=O)c1cc(ccc1N1CCCCC1)O2 [Compound 56, 5-(2,6-Dimethylphenyl)-9,9-dioxo-18-(1-piperidyl)-2-oxa-9λ^6-thia-6,8,15,23-tetraazatetracyclo[15.3.1.13,7.110,14]tricosa-1(21),3,5,7(23),10(22),11,13,17,19-nonaen-16-one]
< 1	> 60	CC1(C)CCCCC1c1cc2nc(n1)NS(=O)(=O)c1cccc(c1)NC(=O)c1cccc(c1)O2 (stereo not shown) [Compound 75, 5-(2,2-Dimethylcyclohexyl)-9,9-dioxo-2-oxa-9λ^6-thia-6,8,15,23-tetraazatetracyclo[15.3.1.13,7.110,14]tricosa-1(20),3,5,7(23),10(22),11,13,17(21),18-nonaen-16-one]
1 to 3	> 60	O=C1Nc2cccc(c2)S(=O)(=O)Nc2nc(cc(-c3ccccc3)n2)Oc2cccc1c2 [Compound 82]
3 to 30	> 60	Nc1ccccc1-c1cc2nc(n1)NS(=O)(=O)c1cccc(c1)NC(=O)c1cccc(c1)O2 [Compound 83]
3 to 30	> 60	O=C1Nc2cccc(c2)S(=O)(=O)Nc2nc(cc(-c3ccccc3O)n2)Oc2cccc1c2 [Compound 84]
	< 30	Cc1nn(C)c(C)c1-c1cc2nc(n1)NS(=O)(=O)c1cccc(c1)NC(=O)c1cccc(c1)O2 [Compound 85]
3 to 30	> 60	O=C1Nc2cccc(c2)S(=O)(=O)Nc2nc(cc(-c3ccco3)n2)Oc2cccc1c2 [Compound 86]
1 to 3	> 60	COc1ccccc1-c1cc2nc(n1)NS(=O)(=O)c1cccc(c1)NC(=O)c1cccc(c1)O2 [Compound 87]
1 to 3	30 to 60	Cc1cccc(C)c1-c1cc2nc(n1)NS(=O)(=O)c1cccc(c1)NC(=O)c1cccc(c1)CCO2 [Compound 94]
< 1	> 60	Cc1cccc(C)c1-c1cc2nc(n1)NS(=O)(=O)c1cccc(c1)NC(=O)C(NC(=O)OC(C)(C)C)CCO2 (stereo not shown) [Compound 95]
1 to 3	> 60	Cc1cccc(C)c1-c1cc2nc(n1)NS(=O)(=O)c1cccc(c1)NC(=O)C(N)CCO2 (stereo not shown) [Compound 96]
< 1	> 60	Cc1cccc(C)c1-c1cc2nc(n1)NS(=O)(=O)c1cccc(c1)NC(=O)CCCCCO2 [Compound 97]
1 to 3	> 60	Cc1cccc(C)c1-c1cc2nc(n1)NS(=O)(=O)c1cccc(c1)NC(=O)C1CC(CN1C(=O)OC(C)(C)C)O2 (stereo not shown) [Compound 98]
3 to 30	30 to 60	Cc1cccc(C)c1-c1cc2nc(n1)NS(=O)(=O)c1cccc(c1)NC(=O)c1cc(cc(N3CCNCC3)c1)O2 [Compound 99]
3 to 30	> 60	Cc1cccc(C)c1-c1cc2nc(n1)NS(=O)(=O)c1cccc(c1)NC(=O)c1cc(ccc1N1CCC(O)CC1)O2 [Compound 100]
3 to 30	> 60	Cc1cccc(C)c1-c1cc2nc(n1)NS(=O)(=O)c1cccc(c1)NC(=O)c1cc(ccc1NC1CCCC(N)C1)O2 (stereo not shown) [Compound 101]
	30 to 60	CNC1CCCCC1N(C)c1ccc2cc1C(=O)Nc1cccc(c1)S(=O)(=O)Nc1nc(cc(-c3c(C)cccc3C)n1)O2 (stereo not shown) [Compound 102]
1 to 3	> 60	Cc1cccc(C)c1-c1cc2nc(n1)NS(=O)(=O)c1cccc(c1)NC(=O)c1cc(ccc1NC1CCCCC1N)O2 (stereo not shown) [Compound 103]
3 to 30	30 to 60	CNCCN(C)c1ccc2cc1C(=O)Nc1cccc(c1)S(=O)(=O)Nc1nc(cc(-c3c(C)cccc3C)n1)O2 [Compound 104]
1 to 3	> 60	Cc1cccc(C)c1-c1cc2nc(n1)NS(=O)(=O)c1cccc(c1)NC(=O)c1cc(ccc1NCCN)O2 [Compound 105]
3 to 30	> 60	Cc1cccc(C)c1-c1cc2nc(n1)NS(=O)(=O)c1cccc(c1)NC(=O)c1cc(ccc1N1CCNCC1)O2 [Compound 106]
	< 30	Cc1ccccc1-c1cc2nc(n1)NS(=O)(=O)c1cccc(c1)N(C)C(=O)c1ccc(cc1)O2 [Compound 113]
3 to 30	> 60	Cc1ccccc1-c1cc2nc(n1)NS(=O)(=O)c1cccc(c1)N(C)C(=O)c1cccc(c1)O2 [Compound 115]
< 1	> 60	Cc1cccc(C)c1-c1cc2nc(n1)NS(=O)(=O)c1cccc(c1)NC(=O)c1cccc(c1Cl)O2 [Compound 116]
